{"source": "patent EP2050747A1", "about": "“Dimers of harmol or of its derivatives and uses thereof” (BioAlliance Pharma, priority 2007, dated 2009)", "key": {"monoamine oxydase": {"system": "monoamine oxydase", "conditions": "cited from earlier work"}, "human tumor cell lines": {"system": "human tumor cell lines", "conditions": "cited from earlier work"}, "[1]": {"system": "malignant NIH 3T3 EF cells", "assay": "Wound healing assay (cell motility)", "type": "cell-based", "conditions": "NIH 3T3 EF cells, 5 µM", "procedure": "Harmol dimers have been tested in a cell motility assay: the behaviour of tumoral cells treated by these dimers was compared with non-treated tumoral cells in a wound healing assay. Wound healing assay was performed to evaluate the effect of tested molecules on motility of malignant NIH 3T3 EF cells and melanoma cell line B16F10. About 100 000-200 000 cells were seeded in a 6-well culture plate and the tested molecule was added 24 hours later. Cells were grown for 3 days to confluence about 90-95% and small scratch-wounds (1 mm width) were made with a pipette tip. Cell debris were removed, then the cultures were incubated in complete medium for 10 h in the presence of the same concentration of the tested molecule. Then, the cells were fixed for 10 min in PBS containing 3.7% formaldehyde at 4°C."}, "B16F10": {"system": "B16F10", "assay": "Cloning assay, colony formation in semi solid medium (methylcellulose)", "type": "cell-based, Murine", "procedure": "(§1) Cells were embedded in complete culture medium supplemented with 0,8% methylcellulose (Methocel MC4000, Sigma), seeded in triplicate into 35-mm dishes (Greiner Bio-one Ref 627102, Dominique Dutscher) and incubated at 37 °C in a humidified 5% CO2 atmosphere.\n(§2) The number of cells seeded was 1000 cells per dish. After one week (B16F10 cell line) to 3 weeks (NIH 3T3 EF cell line), macroscopic clones were counted."}, "[2]": {"system": "cyclin-dependent kinases (CDKs)", "conditions": "cited from earlier work"}, "F-actin": {"system": "F-actin", "assay": "Actin dynamics, fluorescence anisotropy assay in tumor cell cytosolic fraction", "type": "biochemical", "procedure": "Actin dynamics have been quantified in tumor cell cytosolic fraction using the fluorescence anisotropy assay which gains access to rate constant of F-actin elongation (kobs) and steady state concentration of F-actin (Δ mA max).\nAll reactions were carried out at 22°C and fluorescence anisotropy signal was recovered at 520 nm with excitation at 490 nm in a Beacon 2000 (Panvera). Alexa 488 actin (Molecular Probes) was centrifuged at 35 000 rpm for 2 h at 4°C to sediment residual actin polymers in a Beckman L5-50B ultracentrifuge. […] 80% of the supernatant was withdrawn; the concentration was defined through fluorescence measurements (excitation at 490 nm and signal recovering at 520 nm). The ultracentrifuged actin concentration was calculated using the non ultracentrifuged Alexa 488 actin as a standard. The supernatant was aliquoted, frozen in liquid nitrogen and stored at -80°C.\nBefore experiment, an aliquot of ultracentrifuged Alexa 488 actin was diluted to a concentration of 1 mg/ml in G buffer (5 mM Tris pH 8.1, 2 mM CaCl2, 0.2 mM DTT, 0.2 mM ATP). 3 µl of diluted Alexa 488 actin was mixed in 168 µl of G buffer and actin monomers anisotropy was measured before the addition of 4 µl of polymerisation buffer (2.5 M KCI, 50 mM MgCl2, 25 mM ATP), 5 µl of G buffer in the presence or in the absence of the chemical molecule and 20 µl cellular extract of normal NIH 3T3 cells or malignant NIH 3T3 EF cells at 2 mg/ml. The final concentration of Alexa 488 actin was 4 nM. The ratio of unlabelled to labelled actin was about 140/4 nM. Measurements were made each 10 sec for 200 sec. Actin monomers anisotropy value was subtracted, yielding the anisotropy enhancement (Δ mA). The data were fitted with the equation Y= Ymax . [1- exp(- K.X)]. The curves start at zero and ascend to Ymax that corresponds to the steady state anisotropy value (Δ mA eq), with a rate constant K. Y is anisotropy values of which monomers anisotropy is substracted and X is the time (Assessment of cellular actin dynamics by measurement of fluorescence anisotropy. Anal Biochem. 2007 Aug 1;367(1):95-103. Epub 2007 Apr 5. Spitz et al.)."}, "NIH 3T3 EF cells": {"system": "NIH 3T3 EF cells", "assay": "Rescue of F-actin network, FITC-phalloidin fluorescence microscopy", "type": "cell-based", "conditions": "compared with the concentrations used in harmol dimers test", "procedure": "Malignant NIH 3T3 EF cells were seeded onto glass cover slips at a density of 2000 cells per cm^2. The next day, tested molecules were applied to NIH 3T3 EF cells at various non cytotoxic concentrations. Three days later, cells were fixed for 10 min in PBS containing 3.7 % formaldehyde at 4°C before examination with a fluorescence microscope. The formaldehyde solution was neutralized with 50 mM NH4Cl. Permeabilisation was carried out for 4 min with 0.4% Triton X-100 in PBS. Cells were incubated for 1 h at room temperature with blocking buffer (3% bovine serum albumin in PBS) and then for 1 h with FITC-phalloidin (Sigma) which stabilizes structures by inhibiting phosphate release from ADP-Pi-actin filaments and allows visualization of actin filaments by fluorescence microscopy. The cover slips were mounted on microscope slides using a solution of glycerol 50%, DABCO 2.5% in PBS as embedding medium."}, "NIH 3T3 EF": {"system": "NIH 3T3 EF", "assay": "Cloning assay, colony formation in semi solid medium (methylcellulose)", "type": "cell-based", "conditions": "in words", "procedure": "as §1, §2"}, "B16F10 tumor": {"system": "B16F10 tumor", "assay": "In vivo tumorigenicity assay, subcutaneous B16F10 tumor growth", "set-up": "species or system C57BU6 mice", "procedure": "Female 6-8 week-old C57BU6 mice were provided by Harlan (Gannat, France).\nAnimals were housed in air-conditioned atmosphere, given food and water in standard conditions. One million B16F10 cells in 0.1 ml PBS were injected subcutaneously into the right flank of mice. Seven days after cells inoculation, it was possible to measure tumor volume (day 0). Thereafter, before drug administration, female C57BU6 mice were randomized to form 2 groups. […]\nB16F10 tumor development was monitored for 2 weeks. The tumor size was estimated every fourth day by measuring the diameters of the tumors in two perpendicular dimensions using callipers. The volume of tumor (V) was calculated using the formula, V = 2W(U2)2 , where L and W were respectively the length and the width of tumor.\nIn vivo tumorigenicity assay was studied with harmine. […] In parallel, control mice were treated by one daily oral route administration of the vehicle."}}, "data": [{"smiles": "COc1ccc2c(c1)[nH]c1c(C)nccc12", "note": "[harmine, reference compound]", "values": [{"measurement": "monoamine oxydase inhibition", "setting": "monoamine oxydase", "value": "monoamine oxydase inhibitor"}, {"measurement": "cytotoxicity against human tumor cell lines", "setting": "human tumor cell lines", "value": "strong cytotoxicity"}, {"measurement": "inhibition of migration compared with the harmol dimers", "setting": "[1]", "value": "lower inhibition of migration"}, {"measurement": "concentration at which inhibition of B16F10 colony formation was observed", "setting": "B16F10", "value": "about 1 µM"}, {"measurement": "inhibition of cyclin-dependent kinases (CDKs)", "setting": "[2]", "value": "selective inhibitor"}, {"measurement": "F actin elongation rate constant compared with NIH 3T3 cytosolic fraction", "setting": "F-actin; NIH 3T3 EF cytosolic fraction, BA016FZ527 at 10 µM, harmine concentration not given", "value": "lower"}, {"measurement": "F actin steady state value (Δ mA max), effect in words", "setting": "F-actin; added to assay medium, NIH 3T3 EF cytosolic fraction or lysate, versus untreated, harmol at 10 µM", "value": "increase"}, {"measurement": "F actin elongation rate constant (Kobs), effect in words", "setting": "F-actin; added to assay medium, NIH 3T3 EF cytosolic fraction, versus untreated", "value": "increase"}, {"measurement": "modification in actin cytoskeleton network", "setting": "NIH 3T3 EF cells", "value": "higher concentrations"}, {"measurement": "concentration at which inhibition of NIH 3T3 EF colony formation was observed", "setting": "NIH 3T3 EF", "value": "micromolar concentration"}, {"measurement": "tumoral growth inhibition", "setting": "B16F10 tumor; daily per os 100 mg/kg (2 x 50 mg/kg) for 15 days", "value": "Any tumoral growth inhibition"}, {"measurement": "tumoral growth inhibition", "setting": "B16F10 tumor; daily per os 200 mg/Kg (2 x 100 mg/kg) for 15 days", "value": "Any tumoral growth inhibition"}]}]}
